Source: patent US9278065B2, “Delivery systems for solubilising water-insoluble pharmaceutical active ingredients” (EMS S/A, priority 2007, dated 2016)

Experiment: Particle size (Z-average) of the formulation mixed with water 1:50
Format: physicochemical
Method: The formulation according to present invention is prepared when the non-ionic surfactant mixture is thoroughly mixed with the solution of the active ingredient in the water-miscible organic solvent/co-solvent.
The present invention will now be illustrated by the following examples. It is understood, however, that such examples are provided for illustration only, and the invention is not intended to be limited by the examples. The formulation based on the system employed in the examples can be formed by any suitable method known in the art. In the examples the formulation was mixed with water at a ratio of 1:50 formulation: water to generate the system and measure the particle size formed in water. The particle size was measured by the method described in Pharmacopea Forum—2001 vol 27 (4) page 2724.

SMILES	increase of particle Z-average (10% tioconazole formulation omitting DEGEE, compared with complete formulation containing DEGEE, PEG Oleate, polyethoxylated castor oil) [%]	particle size of emulsion (10% tioconazole formulation omitting polyethoxylated castor oil, diluted 1:50 in water) [nm]	Z-average (0.5% tacrolimus in ethanol with DEGEE / PEG Oleate / polyethoxylated castor oil as per Table 3, diluted 1:50 in water) [nm]
Clc1ccc(C(Cn2ccnc2)OCc2ccsc2Cl)c(Cl)c1 (stereo not drawn) [Tioconazole]	10	450	–
C=CC[C@@H]1/C=C(\C)C[C@H](C)C[C@H](OC)[C@H]2O[C@@](O)(C(=O)C(=O)N3CCCC[C@H]3C(=O)O[C@H](/C(C)=C/[C@@H]3CC[C@@H](O)[C@H](OC)C3)[C@H](C)[C@@H](O)CC1=O)[C@H](C)C[C@@H]2OC [tacrolimus]	–	–	32
